Columns and labels:
Carbonic anhydrase 2 = Carbonic anhydrase 2 (Homo sapiens, UniProt P00918)
Description: Inhibitory activity against human recombinant carbonic anhydrase II (CA2)

Carbonic anhydrase 4 = target: T1, Carbonic anhydrase 4 (Bos taurus, UniProt Q95323)
T1 sequence (Q95323 whole entry): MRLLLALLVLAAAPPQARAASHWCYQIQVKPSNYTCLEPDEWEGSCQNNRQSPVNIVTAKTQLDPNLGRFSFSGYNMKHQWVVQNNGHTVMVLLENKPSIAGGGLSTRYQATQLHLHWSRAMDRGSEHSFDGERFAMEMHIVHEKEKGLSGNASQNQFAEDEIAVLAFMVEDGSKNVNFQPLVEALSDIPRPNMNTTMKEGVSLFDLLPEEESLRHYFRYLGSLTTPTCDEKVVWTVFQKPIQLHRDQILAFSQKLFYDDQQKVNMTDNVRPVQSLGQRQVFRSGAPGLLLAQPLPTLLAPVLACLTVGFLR
Description: Inhibitory activity against bovine carbonic anhydrase IV (CA4), obtained from bovine lung microsomes

Carbonic anhydrase 1 = Carbonic anhydrase 1 (Homo sapiens, UniProt P00915)
Sequence of Carbonic anhydrase 1 (P00915 whole entry): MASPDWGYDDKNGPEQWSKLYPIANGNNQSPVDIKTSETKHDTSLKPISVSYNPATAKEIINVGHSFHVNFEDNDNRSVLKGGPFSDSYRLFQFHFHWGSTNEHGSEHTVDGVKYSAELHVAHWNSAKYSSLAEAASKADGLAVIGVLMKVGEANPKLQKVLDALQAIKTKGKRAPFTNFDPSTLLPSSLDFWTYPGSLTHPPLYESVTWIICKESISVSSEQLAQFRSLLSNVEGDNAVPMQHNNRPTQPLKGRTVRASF
Description: Inhibitory activity against human recombinant carbonic anhydrase I (CA1)

Q: Which Ki (Carbonic anhydrase 2) does the source give for `C[C@H](CCC(=O)Nc1cccc(S(N)(=O)=O)c1)[C@H]1CC[C@H]2[C@@H]3[C@H](O)C[C@@H]4C[C@H](O)CC[C@]4(C)[C@H]3C[C@H](O)[C@]12C` here?
A: 218 nM

Q: And the Ki (Carbonic anhydrase 4)?
A: 1350 nM

Q: What about the Ki (Carbonic anhydrase 1) of the same compound?
A: 23000 nM

Q: With `C[C@H](CCC(=O)NNc1ccc(S(N)(=O)=O)cc1)[C@H]1CC[C@H]2[C@@H]3[C@H](O)C[C@@H]4C[C@H](O)CC[C@]4(C)[C@H]3CC[C@]12C` as the compound, how does the Ki (Carbonic anhydrase 2) read?
A: 295 nM

Q: What about the Ki (Carbonic anhydrase 4) of the same compound?
A: 850 nM

Q: What about the Ki (Carbonic anhydrase 1) of the same compound?
A: 27500 nM

Q: How did the Ki (Carbonic anhydrase 2) turn out when `C[C@H](CCC(=O)Nc1c(S(N)(=O)=O)cc(S(N)(=O)=O)c(Cl)c1Cl)[C@H]1CC[C@H]2[C@@H]3CC[C@@H]4C[C@H](O)CC[C@]4(C)[C@H]3C[C@H](O)[C@]12C` was run?
A: 20 nM

Q: And the Ki (Carbonic anhydrase 4)?
A: 100 nM

Q: And the Ki (Carbonic anhydrase 1)?
A: 285 nM

Q: For `C[C@H](CCC(=O)Nc1ccc(S(N)(=O)=O)cc1F)[C@H]1CC[C@H]2[C@@H]3CC[C@@H]4C[C@H](O)CC[C@]4(C)[C@H]3C[C@H](O)[C@]12C`, which Ki (Carbonic anhydrase 2) is on record?
A: 42 nM

Q: And the Ki (Carbonic anhydrase 4)?
A: 96 nM

Q: And the Ki (Carbonic anhydrase 1)?
A: 780 nM

Q: `C[C@H](CCC(=O)Oc1ccc2nc(S(N)(=O)=O)sc2c1)[C@H]1CC[C@H]2[C@@H]3CC[C@@H]4C[C@H](O)CC[C@]4(C)[C@H]3CC[C@]12C` was tested. Which Ki (Carbonic anhydrase 2) did it give?
A: 2 nM

Q: What about the Ki (Carbonic anhydrase 4) of the same compound?
A: 9 nM

Q: And the Ki (Carbonic anhydrase 1)?
A: 40 nM

Q: What does the source list for `C[C@H](CCC(=O)Nc1ccccc1S(N)(=O)=O)[C@H]1CC[C@H]2[C@@H]3CC[C@@H]4C[C@H](O)CC[C@]4(C)[C@H]3C[C@H](O)[C@]12C`?
A: Ki (Carbonic anhydrase 2): 280 nM; Ki (Carbonic anhydrase 4): 975 nM; Ki (Carbonic anhydrase 1): 20100 nM

Q: Which results are given for `C[C@H](CCC(=O)OCCc1ccc(S(N)(=O)=O)cc1)[C@H]1CC[C@H]2[C@@H]3[C@H](O)C[C@@H]4C[C@H](O)CC[C@]4(C)[C@H]3C[C@H](O)[C@]12C`?
A: Ki (Carbonic anhydrase 2): 80 nM; Ki (Carbonic anhydrase 4): 300 nM; Ki (Carbonic anhydrase 1): 1150 nM

Q: How did the Ki (Carbonic anhydrase 2) turn out when `C[C@H](CCC(=O)NCCC(=O)Nc1nnc(S(N)(=O)=O)s1)[C@H]1CC[C@H]2[C@@H]3CC[C@@H]4C[C@H](O)CC[C@]4(C)[C@H]3CC[C@]12C` was run?
A: 2.1 nM

Q: What about the Ki (Carbonic anhydrase 4) of the same compound?
A: 19 nM

Q: And the Ki (Carbonic anhydrase 1)?
A: 200 nM

Q: With `C[C@H](CCC(=O)Nc1ccc(S(N)(=O)=O)cc1)[C@H]1CC[C@H]2[C@@H]3[C@H](O)C[C@@H]4C[C@H](O)CC[C@]4(C)[C@H]3CC[C@]12C` as the compound, how does the Ki (Carbonic anhydrase 2) read?
A: 186 nM

Q: And the Ki (Carbonic anhydrase 4)?
A: 420 nM

Q: And the Ki (Carbonic anhydrase 1)?
A: 20000 nM

Q: How did the Ki (Carbonic anhydrase 2) turn out when `C[C@H](CCC(=O)Nc1ccc(S(N)(=O)=O)cc1I)[C@H]1CC[C@H]2[C@@H]3CC[C@@H]4C[C@H](O)CC[C@]4(C)[C@H]3CC[C@]12C` was run?
A: 32 nM

Q: And the Ki (Carbonic anhydrase 4)?
A: 69 nM

Q: And the Ki (Carbonic anhydrase 1)?
A: 120 nM

Q: What does the source list for `C[C@H](CCC(=O)Nc1cc(Cl)c(S(N)(=O)=O)cc1S(N)(=O)=O)[C@H]1CC[C@H]2[C@@H]3[C@H](O)C[C@@H]4C[C@H](O)CC[C@]4(C)[C@H]3CC[C@]12C`?
A: Ki (Carbonic anhydrase 2): 62 nM; Ki (Carbonic anhydrase 4): 143 nM; Ki (Carbonic anhydrase 1): 300 nM

Q: For `C[C@H](CCC(=O)/N=c1\sc(S(N)(=O)=O)nn1C)[C@H]1CC[C@H]2[C@@H]3[C@@H](O)C[C@@H]4C[C@H](O)CC[C@]4(C)[C@H]3CC[C@]12C`, which Ki (Carbonic anhydrase 2) is on record?
A: 2 nM

Q: And the Ki (Carbonic anhydrase 4)?
A: 17 nM

Q: What about the Ki (Carbonic anhydrase 1) of the same compound?
A: 54 nM

Q: Which Ki (Carbonic anhydrase 2) does the source give for `C[C@H](CCC(=O)Nc1c(S(N)(=O)=O)cc(S(N)(=O)=O)c(Cl)c1Cl)[C@H]1CC[C@H]2[C@@H]3[C@H](O)C[C@@H]4C[C@H](O)CC[C@]4(C)[C@H]3C[C@H](O)[C@]12C` here?
A: 21 nM

Q: What about the Ki (Carbonic anhydrase 4) of the same compound?
A: 97 nM

Q: And the Ki (Carbonic anhydrase 1)?
A: 400 nM

Q: Which Ki (Carbonic anhydrase 2) does the source give for `C[C@H](CCC(=O)Nc1ccc(S(N)(=O)=O)cc1Cl)[C@H]1CC[C@H]2[C@@H]3CC[C@@H]4C[C@H](O)CC[C@]4(C)[C@H]3CC[C@]12C` here?
A: 47 nM

Q: And the Ki (Carbonic anhydrase 4)?
A: 54 nM

Q: And the Ki (Carbonic anhydrase 1)?
A: 720 nM

Q: `C[C@H](CCC(=O)Nc1ccc(S(N)(=O)=O)cc1)[C@H]1CC[C@H]2[C@@H]3CC[C@@H]4C[C@H](O)CC[C@]4(C)[C@H]3CC[C@]12C` was tested. Which Ki (Carbonic anhydrase 2) did it give?
A: 106 nM

Q: And the Ki (Carbonic anhydrase 4)?
A: 280 nM

Q: And the Ki (Carbonic anhydrase 1)?
A: 6300 nM

Q: What does the source list for `C[C@H](CCC(=O)NCCc1ccc(S(N)(=O)=O)cc1)[C@H]1CC[C@H]2[C@@H]3[C@H](O)C[C@@H]4C[C@H](O)CC[C@]4(C)[C@H]3CC[C@]12C`?
A: Ki (Carbonic anhydrase 2): 86 nM; Ki (Carbonic anhydrase 4): 235 nM; Ki (Carbonic anhydrase 1): 3300 nM

Q: `C[C@H](CCC(=O)OCCc1ccc(S(N)(=O)=O)cc1)[C@H]1CC[C@H]2[C@@H]3[C@@H](O)C[C@@H]4C[C@H](O)CC[C@]4(C)[C@H]3CC[C@]12C` was tested. Which Ki (Carbonic anhydrase 2) did it give?
A: 58 nM

Q: And the Ki (Carbonic anhydrase 4)?
A: 160 nM

Q: What about the Ki (Carbonic anhydrase 1) of the same compound?
A: 350 nM

Q: With `C[C@H](CCC(=O)NCCc1ccc(S(N)(=O)=O)cc1)[C@H]1CC[C@H]2[C@@H]3C(=O)C[C@@H]4CC(=O)CC[C@]4(C)[C@H]3CC(=O)[C@]12C` as the compound, how does the Ki (Carbonic anhydrase 2) read?
A: 18 nM

Q: What about the Ki (Carbonic anhydrase 4) of the same compound?
A: 29 nM

Q: What about the Ki (Carbonic anhydrase 1) of the same compound?
A: 285 nM

Q: What does the source list for `C[C@H](CCC(=O)NCc1ccc(S(N)(=O)=O)cc1)[C@H]1CC[C@H]2[C@@H]3[C@@H](O)C[C@@H]4C[C@H](O)CC[C@]4(C)[C@H]3CC[C@]12C`?
A: Ki (Carbonic anhydrase 2): 21 nM; Ki (Carbonic anhydrase 4): 40 nM; Ki (Carbonic anhydrase 1): 550 nM

Q: `C[C@H](CCC(=O)Nc1c(S(N)(=O)=O)cc(S(N)(=O)=O)c(Cl)c1Cl)[C@H]1CC[C@H]2[C@@H]3C(=O)C[C@@H]4CC(=O)CC[C@]4(C)[C@H]3CC(=O)[C@]12C` was tested. Which Ki (Carbonic anhydrase 2) did it give?
A: 9 nM

Q: What about the Ki (Carbonic anhydrase 4) of the same compound?
A: 24 nM

Q: And the Ki (Carbonic anhydrase 1)?
A: 45 nM

Q: What does the source list for `C[C@H](CCC(=O)OCCOc1ccc2nc(S(N)(=O)=O)sc2c1)[C@H]1CC[C@H]2[C@@H]3[C@@H](O)C[C@@H]4C[C@H](O)CC[C@]4(C)[C@H]3CC[C@]12C`?
A: Ki (Carbonic anhydrase 2): 0.6 nM; Ki (Carbonic anhydrase 4): 5 nM; Ki (Carbonic anhydrase 1): 30 nM

Q: `C[C@H](CCC(=O)Nc1ccccc1S(N)(=O)=O)[C@H]1CC[C@H]2[C@@H]3C(=O)C[C@@H]4CC(=O)CC[C@]4(C)[C@H]3CC(=O)[C@]12C` was tested. Which Ki (Carbonic anhydrase 2) did it give?
A: 170 nM

Q: What about the Ki (Carbonic anhydrase 4) of the same compound?
A: 505 nM

Q: And the Ki (Carbonic anhydrase 1)?
A: 8100 nM

Q: `C[C@H](CCC(=O)Nc1cc(Cl)c(S(N)(=O)=O)cc1S(N)(=O)=O)[C@H]1CC[C@H]2[C@@H]3[C@@H](O)C[C@@H]4C[C@H](O)CC[C@]4(C)[C@H]3CC[C@]12C` was tested. Which Ki (Carbonic anhydrase 2) did it give?
A: 9 nM

Q: What about the Ki (Carbonic anhydrase 4) of the same compound?
A: 46 nM

Q: And the Ki (Carbonic anhydrase 1)?
A: 71 nM

Q: Which results are given for `C[C@H](CCC(=O)OCCOc1ccc2nc(S(N)(=O)=O)sc2c1)[C@H]1CC[C@H]2[C@@H]3CC[C@@H]4C[C@H](O)CC[C@]4(C)[C@H]3C[C@H](O)[C@]12C`?
A: Ki (Carbonic anhydrase 2): 4.1 nM; Ki (Carbonic anhydrase 4): 8 nM; Ki (Carbonic anhydrase 1): 37 nM

Q: What does the source list for `C[C@H](CCC(=O)Nc1cccc(S(N)(=O)=O)c1)[C@H]1CC[C@H]2[C@@H]3CC[C@@H]4C[C@H](O)CC[C@]4(C)[C@H]3C[C@H](O)[C@]12C`?
A: Ki (Carbonic anhydrase 2): 230 nM; Ki (Carbonic anhydrase 4): 980 nM; Ki (Carbonic anhydrase 1): 12700 nM

Q: `C[C@H](CCC(=O)Nc1nnc(S(N)(=O)=O)s1)[C@H]1CC[C@H]2[C@@H]3[C@H](O)C[C@@H]4C[C@H](O)CC[C@]4(C)[C@H]3C[C@H](O)[C@]12C` was tested. Which Ki (Carbonic anhydrase 2) did it give?
A: 50 nM

Q: What about the Ki (Carbonic anhydrase 4) of the same compound?
A: 205 nM

Q: What about the Ki (Carbonic anhydrase 1) of the same compound?
A: 420 nM

Q: `C[C@H](CCC(=O)/N=c1/sc(S(N)(=O)=O)nn1C)[C@H]1CC[C@H]2[C@@H]3[C@H](O)C[C@@H]4C[C@H](O)CC[C@]4(C)[C@H]3C[C@H](O)[C@]12C` was tested. Which Ki (Carbonic anhydrase 2) did it give?
A: 12 nM

Q: And the Ki (Carbonic anhydrase 4)?
A: 115 nM

Q: What about the Ki (Carbonic anhydrase 1) of the same compound?
A: 700 nM

Q: Which Ki (Carbonic anhydrase 2) does the source give for `C[C@H](CCC(=O)Nc1cccc(S(N)(=O)=O)c1)[C@H]1CC[C@H]2[C@@H]3C(=O)C[C@@H]4CC(=O)CC[C@]4(C)[C@H]3CC(=O)[C@]12C` here?
A: 156 nM

Q: What about the Ki (Carbonic anhydrase 4) of the same compound?
A: 440 nM

Q: And the Ki (Carbonic anhydrase 1)?
A: 7440 nM

Q: What does the source list for `C[C@H](CCC(=O)Nc1nnc(S(N)(=O)=O)s1)[C@H]1CC[C@H]2[C@@H]3CC[C@@H]4C[C@H](O)CC[C@]4(C)[C@H]3C[C@H](O)[C@]12C`?
A: Ki (Carbonic anhydrase 2): 50 nM; Ki (Carbonic anhydrase 4): 130 nM; Ki (Carbonic anhydrase 1): 200 nM
